# According to patent US7902188B2, “Morpholine dopamine agonists” (Pfizer Inc., priority 2002, dated 2011):
# Molecular target: T1, human dopamine D2long receptor (Homo sapiens, UniProt P14416)
# T1 construct: expressed in transfected cells; host or cells: GH4C1 rat pituitary cells
# Experiment: Inhibition via dopamine D2 receptors of forskolin-stimulated adenylate cyclase activity (cAMP Flashplate, GH4C1/hD2L cells)
# Format: cell-based
# Conditions: D2 EC50 value divided by D3 EC50 value; where D2 EC50 was >10000, a figure of 10000 was used
# Description: A suitable assay for determining functionally the activity of a compound at D3 and/or […] dopamine receptors is detailed hereinbelow. Compounds are evaluated as agonists or antagonists at the dopamine D2 and D3 receptors by looking at cAMP levels in a GH4C1 and CHO cell-line expressing the human D2 and D3 receptors, respectively.
# Inhibition Via Dopamine D2 Receptors of Forskolin Stimulated Adenylate Cyclase Activity Materials Cell Culture Media:
# 4× assay stock of 20 μM made by carrying out a 1000-fold dilution in PBS buffer, 25 μl of the 20 μM stock is added to a final assay volume of 100 μl, giving a final assay concentration of 5 μM.
# • Pramipexole is included as a reference standard. A 10-point, semi-log curve is generated every 4 plates. Compound responses are normalised to the minimum (0 nM pramipexole) and maximum (100 nM Pramipexole) responses generated by the cells. All test compounds may also be tested via a 10-point (semi-log) curve. • Test compounds are dissolved in 100% DMSO to yield a stock concentration of 10 mM, (1000× the final assay concentration required, e.g. 10 mM will give a top concentration of 10000 nM). • Pramipexole is dissolved in 100% DMSO to give a concentration of 10 mM. […]
# T1 sequence (P14416 whole entry): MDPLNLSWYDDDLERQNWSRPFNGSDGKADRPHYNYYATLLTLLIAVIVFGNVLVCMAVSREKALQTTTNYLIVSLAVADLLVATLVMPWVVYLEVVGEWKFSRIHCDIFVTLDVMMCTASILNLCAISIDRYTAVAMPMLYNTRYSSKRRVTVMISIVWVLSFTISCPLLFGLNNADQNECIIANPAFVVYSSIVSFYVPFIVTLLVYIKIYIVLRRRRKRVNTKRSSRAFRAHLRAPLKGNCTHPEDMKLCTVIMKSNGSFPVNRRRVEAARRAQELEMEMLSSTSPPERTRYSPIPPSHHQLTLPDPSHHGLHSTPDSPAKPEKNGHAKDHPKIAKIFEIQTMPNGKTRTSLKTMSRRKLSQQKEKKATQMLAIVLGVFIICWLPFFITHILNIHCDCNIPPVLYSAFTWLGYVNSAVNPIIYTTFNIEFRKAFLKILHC
smiles,measurement,value
"CCCN1CCO[C@H](c2cccc(O)c2)C1.Cl [Example 8, R-(−)-3-(4-Propylmorpholin-2-yl)phenol hydrochloride]",selectivity for D3 over D2,1315.8 fold
